# Assay results: article PMC9653409, “Generative deep learning enables the discovery of a potent and selective RIPK1 inhibitor” (Nature Communications, 2022)
# Read-outs that look alike come from different tables or passages of the source.
# Key:
# Assay in all cases: Kinase inhibitory activity profiling of RI-962@10 µM (406 kinases, Eurofins)
# Assay type in all cases: biochemical
# [1] = target: panel of human kinases (kinase named in endpoint) (Homo sapiens, UniProt O14578); conditions: 10 µM; read-out: Activity (%), CRIK(h)
# In short: (§1)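 Radiometric filter-binding kinase assays: enzyme preincubated 15 min with compound in 8 mM MOPS pH 7.0, 0.2 mM EDTA, 250 μM peptide substrate, 10 mM magnesium acetate, 10 μM [γ-33P]-ATP. Reaction started with Mg/ATP, run 40 min at room temperature, stopped with phosphoric acid; 33P incorporation read by scintillation counting. Other kinases by similar protocols.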
# [2] = target: panel of human kinases (kinase named in endpoint) (Homo sapiens, UniProt P05129); conditions: 10 µM; read-out: Activity (%), PKCγ(h)
# In short: as §1
# [3] = target: panel of human kinases (kinase named in endpoint) (Homo sapiens, UniProt P46734); conditions: 10 µM; read-out: Activity (%), MKK3(h)
# In short: as §1
# [4] = target: panel of human kinases (kinase named in endpoint) (Homo sapiens, UniProt P42336, H1047R); conditions: 10 µM; read-out: Activity (%), PI3 Kinase (p110a(H1047R)/p85a)(h)
# In short: as §1
# [5] = target: panel of human kinases (kinase named in endpoint) (Homo sapiens, UniProt P35968); conditions: 10 µM; read-out: Activity (%), KDR(h)
# In short: as §1
# [6] = target: panel of human kinases (kinase named in endpoint) (Homo sapiens, UniProt P04629); conditions: 10 µM; read-out: Activity (%), TrkA(h)
# panel of human kinases (kinase named in endpoint) (Homo sapiens, UniProt P04629), sequence (P04629 33-796): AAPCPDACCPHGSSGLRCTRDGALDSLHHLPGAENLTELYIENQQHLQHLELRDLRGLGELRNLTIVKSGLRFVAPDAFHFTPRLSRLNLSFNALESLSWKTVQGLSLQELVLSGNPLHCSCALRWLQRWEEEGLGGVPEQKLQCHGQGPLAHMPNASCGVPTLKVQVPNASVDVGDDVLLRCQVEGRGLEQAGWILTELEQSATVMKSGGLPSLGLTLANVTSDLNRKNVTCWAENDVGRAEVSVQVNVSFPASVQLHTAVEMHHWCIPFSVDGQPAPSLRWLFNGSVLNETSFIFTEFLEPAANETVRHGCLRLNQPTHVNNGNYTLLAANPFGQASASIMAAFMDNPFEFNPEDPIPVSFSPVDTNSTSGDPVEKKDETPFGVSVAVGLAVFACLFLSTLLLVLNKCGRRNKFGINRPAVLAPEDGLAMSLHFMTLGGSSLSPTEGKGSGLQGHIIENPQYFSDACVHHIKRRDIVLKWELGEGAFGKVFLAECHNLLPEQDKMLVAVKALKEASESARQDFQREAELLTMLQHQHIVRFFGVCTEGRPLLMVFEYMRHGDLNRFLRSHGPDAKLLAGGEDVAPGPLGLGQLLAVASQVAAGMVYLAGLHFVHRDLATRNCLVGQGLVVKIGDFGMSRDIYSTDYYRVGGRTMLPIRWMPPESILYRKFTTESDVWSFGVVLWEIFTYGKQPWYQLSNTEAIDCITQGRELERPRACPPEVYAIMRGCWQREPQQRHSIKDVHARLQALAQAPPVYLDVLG
# In short: as §1
# [7] = test system: panel of human kinases (kinase named in endpoint); conditions: 10 µM
# In short: as §1
# [8] = target: panel of human kinases (kinase named in endpoint) (Homo sapiens, UniProt Q13464); conditions: 10 µM; read-out: Activity (%), ROCK-I(h)
# In short: as §1
# [9] = target: panel of human kinases (kinase named in endpoint) (Homo sapiens, UniProt P0C1S8); conditions: 10 µM; read-out: Activity (%), Wee1B(h)
# In short: as §1
# [10] = target: panel of human kinases (kinase named in endpoint) (Homo sapiens, UniProt P00519, H396P); conditions: 10 µM; read-out: Activity (%), Abl (H396P) (h)
# In short: as §1
# [11] = target: panel of human kinases (kinase named in endpoint) (Homo sapiens, UniProt O94921); conditions: 10 µM; read-out: Activity (%), CDK14/cyclinY(h)
# In short: as §1
# [12] = target: panel of human kinases (kinase named in endpoint) (Homo sapiens, UniProt P20794); conditions: 10 µM; read-out: Activity (%), MAK(h)
# In short: as §1
# [13] = target: panel of human kinases (kinase named in endpoint) (Homo sapiens, UniProt Q6PHR2); conditions: 10 µM; read-out: Activity (%), ULK3(h)
# In short: as §1
# [14] = target: panel of human kinases (kinase named in endpoint) (Homo sapiens, UniProt Q15835); conditions: 10 µM; read-out: Activity (%), GRK1(h)
# In short: as §1
# [15] = target: panel of human kinases (kinase named in endpoint) (Homo sapiens, UniProt O96013); conditions: 10 µM; read-out: Activity (%), PAK4(h)
# panel of human kinases (kinase named in endpoint) (Homo sapiens, UniProt O96013), sequence (O96013 whole entry): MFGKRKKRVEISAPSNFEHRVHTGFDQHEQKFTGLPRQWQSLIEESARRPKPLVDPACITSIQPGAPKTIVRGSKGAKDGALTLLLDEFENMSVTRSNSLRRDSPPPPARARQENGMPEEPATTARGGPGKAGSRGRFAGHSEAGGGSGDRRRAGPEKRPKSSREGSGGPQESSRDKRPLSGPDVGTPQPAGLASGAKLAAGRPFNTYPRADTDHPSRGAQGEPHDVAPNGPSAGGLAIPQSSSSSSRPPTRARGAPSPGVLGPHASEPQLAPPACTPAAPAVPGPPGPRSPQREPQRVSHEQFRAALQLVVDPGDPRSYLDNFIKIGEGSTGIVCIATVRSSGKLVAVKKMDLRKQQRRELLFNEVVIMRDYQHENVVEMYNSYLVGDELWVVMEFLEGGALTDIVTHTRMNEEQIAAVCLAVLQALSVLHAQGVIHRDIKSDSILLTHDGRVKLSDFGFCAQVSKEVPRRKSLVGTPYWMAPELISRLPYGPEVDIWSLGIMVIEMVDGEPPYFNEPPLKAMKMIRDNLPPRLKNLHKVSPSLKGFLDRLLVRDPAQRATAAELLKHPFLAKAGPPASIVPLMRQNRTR
# In short: as §1
# [16] = target: panel of human kinases (kinase named in endpoint) (Homo sapiens, UniProt Q96RG2); conditions: 10 µM; read-out: Activity (%), PASK(h)
# In short: as §1
# [17] = target: panel of human kinases (kinase named in endpoint) (Homo sapiens, UniProt P51955); conditions: 10 µM; read-out: Activity (%), NEK2(h)
# In short: as §1
# [18] = target: panel of human kinases (kinase named in endpoint) (Homo sapiens, UniProt P33981); conditions: 10 µM; read-out: Activity (%), TTK(h)
# panel of human kinases (kinase named in endpoint) (Homo sapiens, UniProt P33981), sequence (P33981 whole entry): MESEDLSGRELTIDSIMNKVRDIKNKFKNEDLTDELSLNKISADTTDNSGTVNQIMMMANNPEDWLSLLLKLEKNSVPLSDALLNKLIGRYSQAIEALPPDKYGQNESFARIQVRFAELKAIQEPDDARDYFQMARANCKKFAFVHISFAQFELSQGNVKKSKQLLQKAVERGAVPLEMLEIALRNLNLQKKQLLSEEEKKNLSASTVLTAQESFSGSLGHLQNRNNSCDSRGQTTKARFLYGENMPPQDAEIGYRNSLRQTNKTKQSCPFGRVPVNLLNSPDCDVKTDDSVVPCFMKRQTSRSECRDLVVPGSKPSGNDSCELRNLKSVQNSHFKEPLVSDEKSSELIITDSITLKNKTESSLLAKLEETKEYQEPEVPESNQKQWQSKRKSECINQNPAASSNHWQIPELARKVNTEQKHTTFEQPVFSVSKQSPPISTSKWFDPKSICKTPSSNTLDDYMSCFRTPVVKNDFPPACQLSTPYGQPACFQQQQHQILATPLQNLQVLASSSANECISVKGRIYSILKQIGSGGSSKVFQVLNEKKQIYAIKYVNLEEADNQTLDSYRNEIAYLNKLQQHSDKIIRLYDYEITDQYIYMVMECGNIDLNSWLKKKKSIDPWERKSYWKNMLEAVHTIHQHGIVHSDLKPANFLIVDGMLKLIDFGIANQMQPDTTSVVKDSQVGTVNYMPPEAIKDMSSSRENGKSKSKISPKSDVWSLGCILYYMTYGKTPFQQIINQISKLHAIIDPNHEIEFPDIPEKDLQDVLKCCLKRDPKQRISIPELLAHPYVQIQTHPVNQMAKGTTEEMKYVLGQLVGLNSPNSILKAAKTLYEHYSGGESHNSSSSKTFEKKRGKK
# In short: as §1
# [19] = target: panel of human kinases (kinase named in endpoint) (Homo sapiens, UniProt Q16644); conditions: 10 µM; read-out: Activity (%), MAPKAP-K3(h)
# panel of human kinases (kinase named in endpoint) (Homo sapiens, UniProt Q16644), sequence (Q16644 whole entry): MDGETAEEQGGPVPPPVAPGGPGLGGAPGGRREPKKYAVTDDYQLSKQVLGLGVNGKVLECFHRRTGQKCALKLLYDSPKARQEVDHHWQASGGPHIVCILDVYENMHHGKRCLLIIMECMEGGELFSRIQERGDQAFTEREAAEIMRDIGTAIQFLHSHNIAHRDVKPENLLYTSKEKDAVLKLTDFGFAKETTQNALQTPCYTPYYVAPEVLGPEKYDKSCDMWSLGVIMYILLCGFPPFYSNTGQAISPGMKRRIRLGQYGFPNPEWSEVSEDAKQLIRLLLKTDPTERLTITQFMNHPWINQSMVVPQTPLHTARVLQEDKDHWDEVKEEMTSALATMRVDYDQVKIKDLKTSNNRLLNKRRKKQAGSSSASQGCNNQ
# In short: as §1
# [20] = target: panel of human kinases (kinase named in endpoint) (Homo sapiens, UniProt P07332); conditions: 10 µM; read-out: Activity (%), Fes(h)
# In short: as §1
# [21] = target: panel of human kinases (kinase named in endpoint) (Homo sapiens, UniProt Q13535); conditions: 10 µM; read-out: Activity (%), ATR/ATRIP(h)
# In short: as §1
# [22] = target: panel of human kinases (kinase named in endpoint) (Homo sapiens, UniProt Q00526); conditions: 10 µM; read-out: Activity (%), CDK3/cyclinE(h)
# In short: as §1
# [23] = target: panel of human kinases (kinase named in endpoint) (Homo sapiens, UniProt Q8TF76); conditions: 10 µM; read-out: Activity (%), Haspin(h)
# panel of human kinases (kinase named in endpoint) (Homo sapiens, UniProt Q8TF76), sequence (Q8TF76 whole entry): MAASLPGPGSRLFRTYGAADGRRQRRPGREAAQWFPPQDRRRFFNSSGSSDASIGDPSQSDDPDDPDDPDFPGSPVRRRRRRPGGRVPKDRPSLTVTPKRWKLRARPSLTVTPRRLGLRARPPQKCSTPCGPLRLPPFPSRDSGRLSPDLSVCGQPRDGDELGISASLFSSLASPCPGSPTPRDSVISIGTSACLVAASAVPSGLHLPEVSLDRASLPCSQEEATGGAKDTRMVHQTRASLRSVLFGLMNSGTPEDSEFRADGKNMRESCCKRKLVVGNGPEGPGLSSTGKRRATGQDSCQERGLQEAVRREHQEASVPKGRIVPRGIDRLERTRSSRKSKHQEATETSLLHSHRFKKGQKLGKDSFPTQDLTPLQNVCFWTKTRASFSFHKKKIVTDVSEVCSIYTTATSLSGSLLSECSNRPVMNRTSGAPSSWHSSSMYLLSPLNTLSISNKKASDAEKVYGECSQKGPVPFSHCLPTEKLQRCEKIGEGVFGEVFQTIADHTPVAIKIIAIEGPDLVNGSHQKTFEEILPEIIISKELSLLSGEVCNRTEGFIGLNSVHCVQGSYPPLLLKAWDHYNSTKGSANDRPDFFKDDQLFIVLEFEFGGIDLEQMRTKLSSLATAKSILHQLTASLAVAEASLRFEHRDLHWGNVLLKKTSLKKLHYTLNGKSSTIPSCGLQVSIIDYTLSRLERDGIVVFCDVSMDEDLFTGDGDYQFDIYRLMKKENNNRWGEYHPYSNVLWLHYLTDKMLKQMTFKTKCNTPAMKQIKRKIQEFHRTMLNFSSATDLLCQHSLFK
# In short: as §1
# [24] = target: panel of human kinases (kinase named in endpoint) (Homo sapiens, UniProt P24941); conditions: 10 µM
# In short: as §1
# [25] = target: panel of human kinases (kinase named in endpoint) (Homo sapiens, UniProt P16591); conditions: 10 µM; read-out: Activity (%), Fer(h)
# panel of human kinases (kinase named in endpoint) (Homo sapiens, UniProt P16591), sequence (P16591 whole entry): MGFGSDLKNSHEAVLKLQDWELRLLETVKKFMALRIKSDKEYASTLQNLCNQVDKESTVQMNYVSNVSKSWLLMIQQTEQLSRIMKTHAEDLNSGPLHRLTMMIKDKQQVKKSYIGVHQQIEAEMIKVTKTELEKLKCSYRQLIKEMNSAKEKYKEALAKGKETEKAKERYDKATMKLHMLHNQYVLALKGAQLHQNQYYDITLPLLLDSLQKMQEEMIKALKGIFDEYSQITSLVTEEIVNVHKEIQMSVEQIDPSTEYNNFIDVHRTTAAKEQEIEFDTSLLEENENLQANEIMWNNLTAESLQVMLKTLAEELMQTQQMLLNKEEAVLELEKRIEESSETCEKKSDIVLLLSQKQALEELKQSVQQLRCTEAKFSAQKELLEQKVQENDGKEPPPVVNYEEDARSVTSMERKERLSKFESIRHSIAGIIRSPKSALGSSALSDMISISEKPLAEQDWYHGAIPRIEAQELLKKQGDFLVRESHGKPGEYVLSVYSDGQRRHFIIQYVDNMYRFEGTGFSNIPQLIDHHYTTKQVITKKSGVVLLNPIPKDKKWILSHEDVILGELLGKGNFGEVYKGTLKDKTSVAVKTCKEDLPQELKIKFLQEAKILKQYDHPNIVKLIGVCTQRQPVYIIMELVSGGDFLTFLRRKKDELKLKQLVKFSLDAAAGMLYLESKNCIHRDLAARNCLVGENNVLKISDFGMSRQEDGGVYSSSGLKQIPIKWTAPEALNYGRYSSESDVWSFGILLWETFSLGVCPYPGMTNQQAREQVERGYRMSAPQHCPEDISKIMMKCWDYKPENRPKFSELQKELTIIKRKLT
# In short: as §1
compound,measurement,setting,value
CC(C)C(=O)Nc1nc2cc(-c3ccc4c(c3)c(C(=O)NC(C)c3ccccc3)cn4C)ccn2n1 (stereo not drawn) [RI-962],activity at 10 µM,[1],101%
same,activity at 10 µM,[2],93%
same,activity at 10 µM,[3],103%
same,activity at 10 µM,[4],99%
same,activity at 10 µM,[5],92%
same,activity at 10 µM,[6],64%
same,"Activity (%), ACTR2(h)",[7],81%
same,"Activity (%), CK1(y)",[7],100%
same,"Activity (%), MAPK1(h)",[7],94%
same,"Activity (%), PKCβII(h)",[7],87%
same,"Activity (%), PKG1β(h)",[7],98%
same,activity at 10 µM,[8],99%
same,activity at 10 µM,[9],95%
same,activity at 10 µM,[10],110%
same,activity at 10 µM,[11],91%
same,activity at 10 µM,[12],126%
same,activity at 10 µM,[13],68%
same,activity at 10 µM,[14],111%
same,activity at 10 µM,[15],92%
same,activity at 10 µM,[16],71%
same,activity at 10 µM,[17],100%
same,activity at 10 µM,[18],92%
same,activity at 10 µM,[19],98%
same,activity at 10 µM,[20],99%
same,activity at 10 µM,[21],108%
same,activity at 10 µM,[22],119%
same,activity at 10 µM,[23],107%
same,activity at 10 µM,"[24]; read-out: Activity (%), CDK2/cyclinA(h)",122%
same,activity at 10 µM,"[24]; read-out: Activity (%), CDK2/cyclinE(h)",92%
same,activity at 10 µM,[25],107%
